{
  "source": "paper PMC7565389",
  "about": "“Natural Potent NAAA Inhibitor Atractylodin Counteracts LPS-Induced Microglial Activation” (Frontiers in Pharmacology, 2020)",
  "molecules": {"B1": {"name": "recombinant human NAAA protein (Homo sapiens) (protein)", "chain": "SPPAAPRFNVSLDSVPELRWLPVLRHYDLDLVRAAMAQVIGDRVPKWVHVLIGKVVLELERFLPQPFTGEIRGMCDFMNLSLADCLLVNLAYESSVFCTSIVAQDSRGHIYHGRNLDYPFGNVLRKLTVDVQFLKNGQIAFTGTTFIGYVGLWTGQSPHKFTVSGDERDKGWWWENAIAALFRRHIPVSWLIRATLSESENFEAAVGKLAKTPLIADVYYIVGGTSPREGVVITRNRDGPADIWPLDPLNGAWFRVETNYDHWKPAPKEDDRRTSAIKALNATGQANLSLEALFQILSVVPVYNNFTIYTTVMSAGSPDKYMTRIRNPSRK", "notes": "purchased R&D Systems (Shanghai, China)"}},
  "key": {"[1]": {"target": "T1, recombinant human NAAA protein (Homo sapiens, UniProt Q02083)", "T1 construct": "purchased R&D Systems (Shanghai, China)", "T1 sequence (Q02083 29-359)": "B1 chain", "test": "Fluorometric NAAA activity assay (PAMCA hydrolysis)", "type": "biochemical", "method": "(§1) Fluorometric NAAA activity measurement was used to evaluate the natural products inhibitory potency towards NAAA as previously reported with minor modifications ([West et al., 2012a]; [West et al., 2012b]). Briefly, in our initial screening, recombinant human NAAA protein was diluted in NAAA buffer (3 mM DTT, 0.1% Triton X-100, 0.05% BSA, 150 mM NaCl, pH 4.5) to 0.25 µg/ml and then 20 µL were transferred to a 96-well half-volume black plate followed by the addition of 2 µL of DMSO-diluted compounds at a final concentration of 50 µM. After shaking for 10 min on a shaking plate, 28 µL of the N-(4-methylcoumarin)-palmitamide (PAMCA) substrate in assay buffer (final concentration: 25 µM) were added, and the reaction was allowed to proceed at 37 °C for 30 min, then enzyme activity was monitored at a wavelength of 460 nm (excitation wavelength: 360 nm) on a multimode reader (Mithras LB 943, Berthold, Germany). Compounds showing > 50% inhibition were subjected to a series of two-fold dilutions for IC50 testing.\nAlthough several compounds have been discovered as NAAA inhibitors, reports on natural derivatives are limited. Here, we constructed a small library of 465 natural compounds consisting of alkaloids, flavonoids, coumarins, terpenoids, polyacetylenes, and aliphatics for activity screening. First, we established a high-throughput screening system for NAAA inhibitors using the fluorogenic compound N-(4-methyl coumarin) palmitamide (PAMCA) as hydrolyzed substrate ([West et al., 2012b]). PAMCA was metabolized to the fluorescent 7-amino-4-methyl coumarin (AMC) and palmitic acid by NAAA at pH 4.5 ( Figure 1A ). […] To further confirm the effectiveness of the screening system, another two reported potent NAAA inhibitors, F96 and AM9053, were tested."}, "LPS-induced BV-2 cells [2]": {"tested_on": "LPS-induced BV-2 cells", "test": "Cellular PEA and OEA levels in LPS-induced BV-2 cells (HPLC-MS/MS)", "type": "cell-based", "conditions": "10 μM, LPS 6 h, compared to LPS-treated control", "method": "(§2) The microglia cell line BV-2 was cultured in DMEM medium containing 10% fetal bovine serum and antibiotics (100 U/ml penicillin, 100 µg/ml streptomycin) and maintained in a humidified 5% CO2 incubator at 37°C. For the experiment, cells were seeded overnight into a 24-well plate for the cytokine assay or into 100-mm dishes for NAE extraction and quantification. The next day, the cells were incubated with fresh culture medium containing the indicated concentration of atractylodin for 0.5 h and following lipopolysaccharide (LPS) treatment (1 μg/ml). Cells incubated with vehicle only (DMSO, 0.1%) were used as control.\nFAEs were extracted from BV-2 cells as previously reported ([Yang et al., 2015]). […] An ABI 3200 Q-Trap mass spectrometer (Applied Biosystems, Concord, Canada equipped with a 1100-LC system (Agilent, Shanghai, China) was used in this experiment. The precursor/product ion transitions in multiple reaction monitoring mode (MRM) were used for mass analysis and quantitation. The molecular ions were monitored at m/z 300.2/62.0 for PEA, m/z 326.1/62.0 for OEA, m/z 348.00/62.00 for AEA, m/z 379.10/287.10 for 2-AG, and m/z 313.1/62.0 for C17:1 FAE.\nTo further investigate the contribution of endogenous fatty acid ethanolamide to the anti-inflammatory effect of atractylodin, cellular PEA and OEA levels were measured by HPLC-MS/MS analysis. […]"}, "LPS-induced BV-2 cells [3]": {"tested_on": "LPS-induced BV-2 cells", "test": "Pro-inflammatory cytokine release in LPS-induced BV-2 cells (ELISA)", "type": "cell-based", "conditions": "culture supernatant", "method": "as §2\nLPS was used to activate BV-2 cells to further assess the anti-inflammatory effects of atractylodin. […] Moreover, the ability to inhibit these inflammatory factors was stronger than the positive control drug dexamethasone (Dex) at a concentration of 10 µM ( Figure 6 )."}, "[4]": {"tested_on": "LPS-induced BV-2 microglial cells", "test": "Nitrite production in LPS-induced BV-2 cells (Griess reagent)", "type": "cell-based", "method": "as §2\nThe concentration of nitrite in the culture medium was determined using a Griess reagent kit that reflected the amount of NO released by cultured cells. Culture supernatants (75 μl) were reacted with an equal volume of Griess reagent kit for 30 min at room temperature, and the absorbance of the diazonium compound at a wavelength of 560 nm was measured.\nThe cytotoxicity of the NAAA inhibitors on BV-2 cells was assessed using CCK-8. […] NAAA is highly expressed in immune cells, including tissue macrophages, monocytes, and microglia. […] The concentrations of nitrite were monitored using the Griess reagent kit."}, "NAAA": {"tested_on": "NAAA", "conditions": "read-out: IC50, NAAA inhibition (reported), cited from earlier work"}, "[5]": {"substrate": "CCCCCCCCCCCCCCCC(=O)Nc1ccc2c(C)cc(=O)oc2c1", "test": "Fluorometric NAAA activity assay (PAMCA hydrolysis)", "type": "biochemical, human", "conditions": "other: pH 4.5, 37.0 °C", "method": "as §1\nAlthough several compounds have been discovered as NAAA inhibitors, reports on natural derivatives are limited. Here, we constructed a small library of 465 natural compounds consisting of alkaloids, flavonoids, coumarins, terpenoids, polyacetylenes, and aliphatics for activity screening. […]"}, "[6]": {"conditions": "recombinant human NAAA, PAMCA 25 µM, pH 4.5, 37 °C 30 min, read-out: IC50, NAAA inhibition"}},
  "note": "Where two headings read alike, the source gives them in different places.",
  "data": [
    {"molecule": "COc1ccc2cc1Oc1ccc(cc1)CC1c3cc(c(OC)cc3CCN1C)Oc1c(OC)c(OC)cc3c1C(C2)N(C)CC3", "note": "[D-tetrandrine]", "values": [
      {"measurement": "IC50", "setting": "[1]; [6]", "result": "52.9 ± 3.05", "unit": "µM"}
    ]},
    {"molecule": "O=c1cc(-c2ccc(O)c(-c3c(O)cc(O)c4c(=O)cc(-c5ccc(O)cc5)oc34)c2)oc2cc(O)cc(O)c12", "note": "[amentoflavone]", "values": [
      {"measurement": "IC50", "setting": "[1]; [6]", "result": "37.8 ± 4.04", "unit": "µM"}
    ]},
    {"molecule": "COc1cc(C[C@H](C)[C@H](C)Cc2ccc3c(c2)OCO3)ccc1O", "note": "[anwuligan]", "values": [
      {"measurement": "IC50", "setting": "[1]; [6]", "result": "23.8 ± 1.06", "unit": "µM"}
    ]},
    {"molecule": "C/C=C/C#CC#C/C=C/c1ccco1", "note": "[atractylodin]", "values": [
      {"measurement": "cellular OEA level", "setting": "LPS-induced BV-2 cells [2]", "result": "significantly increased"},
      {"measurement": "cellular PEA level", "setting": "LPS-induced BV-2 cells [2]", "result": "significantly increased"},
      {"measurement": "inhibition of IL-1β production", "setting": "LPS-induced BV-2 cells [3]", "result": "in a dose-dependent manner"},
      {"measurement": "inhibition of IL-6 production", "setting": "LPS-induced BV-2 cells [3]", "result": "in a dose-dependent manner"},
      {"measurement": "inhibition of TNF-α production", "setting": "LPS-induced BV-2 cells [3]", "result": "in a dose-dependent manner"},
      {"measurement": "IC50", "setting": "[1]", "result": 2.81, "unit": "µM"},
      {"measurement": "time course of NAAA inhibition (pre-incubation with hNAAA)", "setting": "[1]", "result": "rapid and unaffected by longer pre-incubation"},
      {"measurement": "mechanism of NAAA inhibition (Lineweaver-Burk plot)", "setting": "[1]; atractylodin 3 µM", "result": "competitive"},
      {"measurement": "NAAA activity after dialysis of the NAAA-inhibitor mixture", "setting": "[1]; dialysis in PBS buffer", "result": "fully recovered"},
      {"measurement": "decrease of LPS-induced nitrite production", "setting": "[4]; 10 µM, 30 min pre-incubation, LPS 24 h, compared with vehicle group", "result": 68.21, "unit": "%"},
      {"measurement": "inhibition of nitrite generation", "setting": "[4]; 1–10 µM, LPS-induced BV-2 cells", "result": "in a dose-dependent manner"}
    ]},
    {"molecule": "CC(=O)Oc1cccc2c1C(=O)c1c(OC(C)=O)cc(C(=O)O)cc1C2=O", "note": "[diacerein]", "values": [
      {"measurement": "IC50", "setting": "NAAA; ref Petrosino et al., 2015", "result": 7.2, "unit": "µM"}
    ]},
    {"molecule": "C\\C(C=C=C1C(C)(C)C[C@H](O)C[C@@]1(C)O)=C/C=C/C(C)=C/C=C/C=C(C)/C=C/C=C(\\C)C(=O)C[C@@]12O[C@]1(C)C[C@@H](O)CC2(C)C", "note": "[fucoxanthinol]", "values": [
      {"measurement": "IC50", "setting": "NAAA; ref Jin et al., 2020", "result": 12.8, "unit": "µM"}
    ]},
    {"molecule": "c1cc2c(cc1[C@H]1OC[C@H]3[C@@H]1CO[C@@H]3c1ccc3c(c1)OCO3)OCO2", "note": "[sesamin]", "values": [
      {"measurement": "IC50", "setting": "[1]; [6]", "result": "30.2 ± 2.09", "unit": "µM"}
    ]},
    {"molecule": "B1", "values": [
      {"measurement": "Km", "setting": "[5]", "result": "17.92 ± 3.54", "unit": "µM"}
    ]}
  ]
}
